Patent US20210338782A1, “STORAGE STABLE SOMATOSTATIN-DOPAMINE CHIMERIC COMPOUNDS AND SALT FORMS THEREOF” (Cydan II, Inc., priority 2019, published 2021)
Structures can show the parent of a compound that is named as a salt.

Columns and labels:
Type in all cases: physicochemical
[1] = Thermogravimetric analysis (TGA) of TBR-760 salt forms; conditions: ramp 5.0° C. per minute from 25 to 400° C.
Experimental: Thermogravimetric analyses (TGA) were performed on all TBR-760 salt forms to evaluate thermal stability of each salt form. Studies were performed using a TGA-Q500 thermogravimetric analyzer (TA Instruments). The weight of each compound was measured while the temperature was increased at a ramp rate of 5.0° C. per minute from 25 to 400° C. […] The weight loss may be indicative of loss of adsorbed moisture, entrained solvent or volatile impurities. Decomposition of the compound appears to start at about 234° C. (sulfate salt), 245° C. (chloride salt), 252° C. (tosylate salt), and 255° C. (mesylate salt). For the acetate salt, a further ˜5% loss of weight between 110° C. and 200° C. was observed, indicating loss of volatile acetate ions over that temperature range (FIG. 8).

[2] = Solid state (thermolytic) stability of TBR-760 salt forms, open container, UPLC peak purity and appearance; conditions: for Purity, T = 2 wk / Purity, T = 4 wk / Purity, Control: UPLC peak purity; for Purity, Control / Appearance, Control: stored at -20° C.
Experimental: Each TBR-760 salt was further evaluated for thermolytic stability over time by setting up three different exposure conditions (25° C. at 60% relative humidity (RH); 40° C. at 75% RH; or 60° C. with open and closed container systems (open dish/closed dish). Approximately 50 mg of each salt form was weighed in a nitrogen-flushed glove box for use in the studies. All samples were stored at −20° C. in a good laboratory practice (GLP) freezer both before and after exposure to the indicated conditions.
The stability of each salt form was assessed by monitoring the post-exposure drug peak purity and by evaluating the post-exposure visual appearance of the salt. The samples were removed from the exposure conditions and allowed to equilibrate to ambient conditions for 15-20 mins. An appropriate amount of each sample was weighed for analysis and dissolved in diluent (deionized water containing 0.1% TFA) to obtain a stock concentration of 1 mg/mL. The stock solution was then diluted to 0.125 mg/mL in an HPLC vial using diluent and the samples were run on a Waters Acquity UPLC system using the parameters shown in Table 4.

[3] = Photostability of TBR-760 salt forms (ICH Q1B, visible and UV light), appearance and UPLC purity; conditions: for Purity, UV-exposed / Purity, Control / Purity, Dark Ctrl-UV / Purity, Dark Crtl-Light / Purity, Light-exposed / degradation upon exposure to visible or UV light, in words: UPLC; for Purity, UV-exposed / Appearance, UV-exposed: UV 200 watt hours/square meter; for Purity, UV-exposed / Purity, Light-exposed / Appearance, UV-exposed / Appearance, Light-exposed: clear sealed vial; for Purity, Control / Appearance, Control: control in sealed amber vial at -20° C.; for Purity, Dark Ctrl-UV / Appearance, Dark Ctrl-UV: dark control in UV chamber; for Purity, Dark Crtl-Light / Appearance, Dark Crtl-Light: dark control in visible light chamber; for Appearance, Dark Ctrl-UV / Appearance, Dark Crtl-Light: amber vial wrapped in aluminum foil; for degradation upon exposure to visible or UV light, in words: visible and UV light
From the text: In order to evaluate the light sensitivity and stability of TBR-760 chimeric peptide salts, all five salt forms were exposed to ultraviolet (UV) and visible light according to International Council for Harmonisation of Technical Requirements for Pharmaceuticals for Human Use (ICH) guideline Q1B for photostability testing. In brief, a Caron 6540-1 photostability chamber unit with separate UV and light chambers was used for the studies. Visible light exposure was 1.2 million lux hours and UV exposure was 200 watt hours/square meter.
Samples were placed in clear, sealed vials and stored in the appropriate chamber alongside dark controls in amber colored vials wrapped in aluminum foil. Control samples were stored in sealed amber vials at −20° C. The appearance of exposed samples was examined visually before being analyzed via UPLC.

[4] = 25° C. at 60% RH, open container
[5] = 40° C. at 75% RH, open container
[6] = visible light 1.2 million lux hours, listed as Sulphate
[7] = visible light 1.2 million lux hours

| SMILES | Appearance, T = 2 wk [2, 4] | Appearance, T = 4 wk [2, 4] | Appearance, T = 3 d [2, 4] | Appearance, T = 2 wk [2, 5] | Appearance, T = 4 wk [2, 5] | Appearance, T = 3 d [2, 5] | Appearance, T = 2 wk ([2]; 60° C., open dish) | Appearance, T = 4 wk ([2]; 60° C., open dish) | Appearance, T = 3 d ([2]; 60° C., open dish) | Purity, T = 2 wk [2, 4] | Purity, T = 4 wk [2, 4] | Purity, T = 2 wk [2, 5] | Purity, T = 4 wk [2, 5] | Purity, T = 2 wk ([2]; 60° C., open dish) | Purity, T = 4 wk ([2]; 60° C., open dish) | Purity, Control [2] | Appearance, Control [2] | Appearance, Control [3] | Appearance, Dark Ctrl-UV [3] | Appearance, Dark Crtl-Light [3] | also measured |
| --- | --- | --- | --- | --- | --- | --- | --- | --- | --- | --- | --- | --- | --- | --- | --- | --- | --- | --- | --- | --- | --- |
| CCCN1C[C@H](CSCC(=O)NCCCC[C@@H](NC(=O)CSC[C@@H]2C[C@@H]3c4cccc5[nH]cc(c45)C[C@H]3N(CCC)C2)C(=O)N[C@H]2CSSC[C@@H](C(=O)N[C@H](C(N)=O)[C@@H](C)O)NC(=O)[C@H](CC)NC(=O)[C@H](CCCCN)NC(=O)[C@@H](Cc3c[nH]c4ccccc34)NC(=O)[C@H](Cc3ccc(O)cc3)NC2=O)C[C@@H]2c3cccc4[nH]cc(c34)C[C@H]21 [TBR-760 sulfate, Dop2-D-Lys(Dop2)-cyclo[Cys-Tyr-D-Trp-Lys-Abu-Cys]-Thr-NH2] | White | White | White | White | White | White | White | White | White | 97.34 | 97.75 | 97.08 | 97.3 | 93.7 | 92.01 | 98.04 | White | white | white | white | TGA start of decomposition ([1]; listed as sulfate salt): about 234 °C; additional degradants in chromatogram versus control ([2]; two weeks at 60° C., open dish, UPLC, listed as sulfate salt): more than 10; Purity, UV-exposed ([3]; listed as Sulphate): 96.24; Purity, Control ([3]; listed as Sulphate): 98.04; Purity, Dark Ctrl-UV ([3]; listed as Sulphate): 98.17; Purity, Dark Crtl-Light ([3]; listed as Sulphate): 98.19; Purity, Light-exposed [3, 6]: 94.82; Appearance, UV-exposed [3]: white to off-white; Appearance, UV-exposed ([3]; listed as Sulphate): off-white; degradation upon exposure to visible or UV light, in words [3]: more resistant to degradation than TBR-760 acetate; Appearance, Light-exposed [3, 7]: no visible discoloration; Appearance, Light-exposed [3, 6]: white |
| CCCN1C[C@H](CSCC(=O)NCCCC[C@@H](NC(=O)CSC[C@@H]2C[C@@H]3c4cccc5[nH]cc(c45)C[C@H]3N(CCC)C2)C(=O)N[C@H]2CSSC[C@@H](C(=O)N[C@H](C(N)=O)[C@@H](C)O)NC(=O)[C@H](CC)NC(=O)[C@H](CCCCN)NC(=O)[C@@H](Cc3c[nH]c4ccccc34)NC(=O)[C@H](Cc3ccc(O)cc3)NC2=O)C[C@@H]2c3cccc4[nH]cc(c34)C[C@H]21 [TBR-760 tosylate, Dop2-D-Lys(Dop2)-cyclo[Cys-Tyr-D-Trp-Lys-Abu-Cys]-Thr-NH2] | White | White | White | White | White | White | White | White | White | 98.01 | 97.39 | 97.57 | 96.93 | 96.86 | 96.52 | 98.39 | White | white | white | white | TGA start of decomposition ([1]; listed as tosylate salt): ~252 °C; Purity, UV-exposed [3]: 95.67; Purity, Control [3]: 98.39; Purity, Dark Ctrl-UV [3]: 98.27; Purity, Dark Crtl-Light [3]: 98.27; Purity, Light-exposed [3, 7]: 96.3; Appearance, UV-exposed ([3]; listed as Tosylate): off-white; Appearance, UV-exposed ([3]; listed as tosylate): white to off-white; degradation upon exposure to visible or UV light, in words [3]: more resistant to degradation than TBR-760 acetate; stability following light exposure, in words [3, 7]: significantly more stable than the TBR-760 acetate salt; Appearance, Light-exposed ([3]; visible light 1.2 million lux hours, listed as Tosylate): off-white; Appearance, Light-exposed ([3]; visible light 1.2 million lux hours, listed as tosylate): white to off-white |
